Assay results as given in PMC9995734, “Polysulfide metabolizing enzymes influence SqrR-mediated sulfide-induced transcription by impacting intracellular polysulfide dynamics” (PNAS Nexus, 2023).
Values belong to the compound of their own block, whether it stands above or below them.

Columns and labels:
[1] = target: T1, SqrR (Rhodobacter capsulatus, UniProt D5AT91); experiment: fluorescence anisotropy of DNA dissociation; LC-ESI-MS of adducts; format: binding; conditions: covalent; pseudo-first-order oxidation of C41/C107; 20-fold excess sulfane sulfur, persulfide made in situ; DNA-bound SqrR; 25 mM HEPES pH 7.0, 400 mM NaCl, 1 mM EDTA, 25°C
T1 construct: recombinant, full-length, reduced C9S protomer 12295 amu
T1 sequence (D5AT91 15-124): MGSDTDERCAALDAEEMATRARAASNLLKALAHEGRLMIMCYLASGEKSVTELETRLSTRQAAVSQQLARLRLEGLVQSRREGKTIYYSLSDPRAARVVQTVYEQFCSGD
From the text: fluorescence anisotropy of DNA dissociation; LC-ESI-MS of adducts on SqrR

[2] = target: T2, SQR (Rhodobacter capsulatus, UniProt D5APH8); experiment: co-purification; format: binding; conditions: noncovalently bound
T2 sequence (D5APH8 1-427): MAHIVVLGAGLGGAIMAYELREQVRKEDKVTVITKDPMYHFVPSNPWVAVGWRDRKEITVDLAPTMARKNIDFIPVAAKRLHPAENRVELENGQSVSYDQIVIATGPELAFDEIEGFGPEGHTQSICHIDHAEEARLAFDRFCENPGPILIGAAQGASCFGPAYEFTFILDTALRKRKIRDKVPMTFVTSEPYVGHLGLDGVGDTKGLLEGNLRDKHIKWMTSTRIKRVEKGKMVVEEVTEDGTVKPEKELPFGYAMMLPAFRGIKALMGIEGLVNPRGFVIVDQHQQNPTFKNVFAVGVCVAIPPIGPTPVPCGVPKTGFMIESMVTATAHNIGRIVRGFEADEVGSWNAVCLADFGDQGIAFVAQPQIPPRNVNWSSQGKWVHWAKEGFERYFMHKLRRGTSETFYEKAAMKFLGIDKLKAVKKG

[3] = target: T2, SQR; experiment: steady-state sulfide:quinone reductase assay; format: biochemical; conditions: electron acceptor at 100 μM; 4 mM KCN as S0 acceptor, Na2S 0-640 μM, 100 nM SQR
[4] = system: SqrR C9S (reduced) (Rhodobacter capsulatus (SB1003?)); experiment: fluorescence anisotropy; conditions: SqrR titrated into fluorescein-labeled operator in quartz cuvette without TCEP, buffer, salt, pH and temperature not given in the …
[5] = system: SqrR C9S, CysSSH-treated (oxidized) (Rhodobacter capsulatus (SB1003?)); experiment: fluorescence anisotropy; conditions: SqrR titrated into fluorescein-labeled operator in quartz cuvette without TCEP, buffer, salt, pH and temperature not given in the …
[6] = system: SqrR C9S, GSSH-treated (oxidized) (Rhodobacter capsulatus (SB1003?)); experiment: fluorescence anisotropy; conditions: SqrR titrated into fluorescein-labeled operator in quartz cuvette without TCEP, buffer, salt, pH and temperature not given in the …

- kox [x 10^-3 s^-1]^a / CSSH [1]: 3.8 ± 0.1 x 10^-3 s^-1
Compound: N[C@@H](CSS)C(=O)O [cysteine persulfide]

Compound: Cc1cc2nc3c(=O)[nH]c(=O)nc-3n(C[C@H](O)[C@H](O)[C@H](O)COP(=O)(O)OP(=O)(O)OC[C@H]3O[C@@H](n4cnc5c(N)ncnc54)[C@H](O)[C@@H]3O)c2cc1C [flavin adenine dinucleotide]
- co-purification [2]: recombinant R. capsulatus SQR noncovalently bound with flavin adenine dinucleotide (FAD)

- kox [x 10^-3 s^-1]^a / GSSH [1]: 0.86 ± 0.05 x 10^-3 s^-1
Compound: N[C@@H](CCC(=O)N[C@@H](CSS)C(=O)NCC(=O)O)C(=O)O [glutathione persulfide]

Compound: CC1=CC(=O)c2ccccc2C1=O [menadione]
- steady-state sulfide:quinone reductase assay [3]: the steady-state activity was higher with MD

Compound: COC1=C(OC)C(=O)C(CC=C(C)C)=C(C)C1=O [ubiquinone-1]
- steady-state sulfide:quinone reductase assay [3]: the activity with UQ-1 was also sufficient for further analyses

Compound: TGACATATTCACAACTCGGAATGTAA / TTACATTCCGAGTGGTGAATATGTCA
- Ka [4]: 270 10^5 M-1
- Ka [5]: 1.8 10^5 M-1
- Ka [6]: 2.5 10^5 M-1
